Values quoted from earlier work in US20090286795A1, “USE OF VASCULAR ENDOTHELIAL GROWTH FACTOR RECEPTOR INHIBITORS FOR THE TREATMENT OF CANCER” (priority 2006, published 2009).

Settings: studies in humans

Clc1ccc(Nc2nnc(Cc3ccncc3)c3ccccc23)cc1 [PTK787, 1-(4-chloroanilino)-4-(4-pyridylmethyl)phthalazine]
tolerability in humans: well tolerated | tumor vascular permeability: reduce tumor vascular permeability
